The record followed here is ChEMBL document CHEMBL2401687, “Hypoxia induced CA9 inhibitory targeting by two different sulfonamide derivatives including acetazolamide in human glioblastoma” (Bioorg Med Chem, 2013).

Active and inactive are the calls of the source. The calls are words filed in the database; no cut-off is given here.

Assay [1] concerns U-87 MG. The following applies: Homo sapiens; U-87MG ATCC.
Description: Inhibition of carbonic anhydrase 9 mRNA expression in human U87MG cells under hypoxic conditions at 5000 nM treated prior to hypoxic-challenge followed by compound addition 12 hrs after first treatment by RT-PCR analysis
In assay [2] the test system is U-373MG ATCC. To be noted: Homo sapiens.
Description: Inhibition of carbonic anhydrase 9 mRNA expression in human U373 cells under hypoxic conditions at 4500 nM treated prior to hypoxic-challenge followed by compound addition 12 hrs after first treatment by RT-PCR analysis
Assay [3] is described as follows: Inhibition of carbonic anhydrase 9 protein expression in human U373 cells under hypoxic conditions at 500 nM treated prior to hypoxic-challenge by Western blotting analysis. Type of assay: functional, cell-based. The following applies: U-373MG ATCC. A general note: In western blotting, separated proteins are transferred to a membrane and probed.
For assay [4], the system named is U-87 MG. The assay can be described thus: Inhibition of carbonic anhydrase 9 mRNA expression in human U87MG cells under hypoxic conditions at 500 nM treated prior to hypoxic-challenge by RT-PCR analysis. Type of assay: functional, cell-based. To be noted: U-87MG ATCC.
In assay [5] the test system is U-251. The assay is described as follows: Inhibition of carbonic anhydrase 9 mRNA expression in human U251 cells under hypoxic conditions at 500 nM treated prior to hypoxic-challenge by RT-PCR analysis. Type of assay: functional, cell-based.
Assay [6] in a line: Inhibition of carbonic anhydrase 9 protein expression in human U87MG cells under hypoxic conditions at 500 nM treated prior to hypoxic-challenge by Western blotting analysis. Type of assay: functional, cell-based. The following applies: U-87MG ATCC.
Assay [7] deals with U-251. The assay is described as follows: Inhibition of carbonic anhydrase 9 protein expression in human U251 cells under hypoxic conditions at 500 nM treated prior to hypoxic-challenge by Western blotting analysis. Type of assay: functional, cell-based.
In assay [8] the test system is GAMG. The assay can be described thus: Inhibition of carbonic anhydrase 9 protein expression in human GaMG cells under hypoxic conditions at 500 nM treated prior to hypoxic-challenge by Western blotting analysis. Type of assay: functional, cell-based.
Assay [9] relates to GAMG. The assay is described as follows: Inhibition of carbonic anhydrase 9 mRNA expression in human GaMG cells under hypoxic conditions at 400 nM treated prior to hypoxic-challenge by RT-PCR analysis. The format is functional, cell-based.
Assay [10] relates to U-373MG ATCC. The assay is described as follows: Inhibition of carbonic anhydrase 9 mRNA expression in human U373 cells under hypoxic conditions at 500 nM treated prior to hypoxic-challenge by RT-PCR analysis. Type of assay: functional, cell-based.

For the molecule `CC(=O)Nc1nnc(S(N)(=O)=O)s1`, the inhibition entry in the assay on U-87 MG [1] and in the assay with U-373MG ATCC [2] was “Active” each time.

For the molecule `CN1C(=O)[C@]2(Cc3cn([C@]45C[C@@]67SS[C@@](CO)(C(=O)N6[C@H]4Nc4ccccc45)N(C)C7=O)c4ccccc34)SS[C@@]1(CO)C(=O)N2C`, the inhibition entry (in [3]; in assay [6]; in the assay on U-251 [7]) was “inactive” each time. In addition, the inhibition entry in the assay on U-87 MG [4], in the assay on U-251 [5], in the assay with GAMG [8], in the assay on GAMG [9] and with U-373MG ATCC [10] was “Active” throughout.
